Series [1] deals with Glutamate racemase (MTB-MurI) (Mycobacterium tuberculosis, UniProt P9WPW9). The series is described as follows: GDH-coupled racemization assay (A340), Lineweaver-Burk and Dixon plots; […]. Format: biochemical.
Series [2] deals with N[C@H](CCC(=O)O)C(=O)O. The series can be described thus: purified protein. As to conditions: substrate binding site; Cys75 and Cys185 catalytic residues.

The values that follow come from publication PMC6976638, “Screening of natural compounds that targets glutamate racemase of Mycobacterium tuberculosis reveals the anti-tubercular potential of flavonoids” (Scientific Reports, 2020).

Usually Ki stands for a measure of affinity in units of concentration, obtained from inhibition or displacement. What is called Km is the concentration of substrate that gives half-maximal velocity.

Glutamate racemase (MTB-MurI), sequence (P9WPW9 whole entry, looked up): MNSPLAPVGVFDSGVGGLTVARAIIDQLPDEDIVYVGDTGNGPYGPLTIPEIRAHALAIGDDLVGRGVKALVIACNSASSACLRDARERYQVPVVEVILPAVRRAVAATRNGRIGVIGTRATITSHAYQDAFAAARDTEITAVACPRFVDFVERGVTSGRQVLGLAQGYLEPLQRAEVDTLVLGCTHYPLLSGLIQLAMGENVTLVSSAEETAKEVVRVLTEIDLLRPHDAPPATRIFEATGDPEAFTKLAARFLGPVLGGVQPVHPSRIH

Consider `O=C1C[C@@H](c2ccc(O)cc2)Oc2cc(O)cc(O)c21` [naringenin], for which the Ki in series [1] amounted to 23.8 µM. Consider `O=c1c(O)c(-c2ccc(O)c(O)c2)oc2cc(O)cc(O)c12` [quercetin], for which, in series [1], affinity was put at a Ki of 20.8 µM. Regarding “Glutamate racemase (MTB-MurI) (Mycobacterium tuberculosis H37Rv)”, the Km in series [2] came to 499 µM.
